Data published in patent US11149033B2, “Heteroaryl compound, enantiomer, diastereomer or pharmaceutically acceptable salt thereof, and antiviral composition containing same as active ingredient” (priority 2016, dated 2021).
Read-outs that look alike come from different tables or passages of the source.

Legend:
B/Florida/04/2006 = assay: Antiviral activity (drug efficacy evaluation by concentration) against B/Florida/04/2006; type: cell-based, B type influenza virus
A/Perth/16/2009 (H3N2) = assay: Antiviral activity (drug efficacy evaluation by concentration) against A/Perth/16/2009 (H3N2); type: cell-based, A type influenza virus
[1] = test system: A/California/07/2009 (H1N1); assay: Antiviral activity (drug efficacy evaluation by concentration) against A/California/07/2009 (H1N1); type: cell-based, A type influenza virus
MDCK cells = assay: Cytotoxicity (CC50) in the influenza infection assay
[2] = read-out: EC50 B/Florida/04/2006, B/Florida/04/2006
[3] = A/Perth/16/2009 (H3N2), read-out: EC50 A/Perth/16/2009 (H3N2)
[4] = A/California/07/2009 (H1N1), read-out: EC50 A/California/07/2009 (H1N1)
[5] = read-out: CC50 A/California/07/2009 (H1N1), cytotoxicity in the A/California/07/2009 (H1N1) assay
[6] = read-out: CC50 A/Perth/16/2009 (H3N2), cytotoxicity in the A/Perth/16/2009 (H3N2) assay
[7] = read-out: CC50 B/Florida/04/2006, cytotoxicity in the B/Florida/04/2006 assay
[8] = Influenza A virus, H3N2, read-out: EC50
[9] = Influenza A virus, H1N1, read-out: EC50
[10] = CC50, third EC50/CC50 column pair (c7), beside the EC50 of c6
[11] = Influenza A virus, H3N2, A/Perth/16/2009 (H3N2), read-out: EC50 A/Perth/16/2009 (H3N2)
[12] = Influenza A virus, H1N1, A/California/07/2009 (H1N1), read-out: EC50 A/California/07/2009 (H1N1)
[13] = CC50 B/Florida/04/2006, cytotoxicity in the B/Florida/04/2006 assay

SMILES	EC50 (B/Florida/04/2006; [2]) [µM]	EC50 (A/Perth/16/2009 (H3N2); [3]) [µM]	EC50 [1, 4] [µM]	CC50 (MDCK cells; [5]) [µM]	CC50 (MDCK cells; [6]) [µM]	CC50 (MDCK cells; [7]) [µM]	EC50 (B/Florida/04/2006) [µM]	melting point [°C]	EC50 (A/Perth/16/2009 (H3N2); [8]) [µM]	EC50 [1, 9] [µM]	CC50 (in vitro; CC50, beside the EC50 of c2) [µM]	CC50 (in vitro; CC50, beside the EC50 of c4) [µM]	CC50 (in vitro; [10]) [µM]	EC50 (A/Perth/16/2009 (H3N2); [11]) [µM]	EC50 [1, 12] [µM]	CC50 (in vitro; [13]) [µM]
Cc1nn(Cc2nnc(SCc3ccccc3-c3ccncc3)o2)c(C)c1Br [Compound 15, 2-((4-bromo-3,5-dimethyl-1H-pyrazol-1-yl)methyl)-5-((2-(pyridin-4-yl)benzyl)thio)-1,3,4-oxadiazole]	8.18	11.6	8.9	> 50	> 50	> 50										
Cc1nn(Cc2nnc(SCc3ccccc3-c3ccncc3)o2)c(C)c1Br [Compound 20, 2-((4-bromo-3,5-dimethyl-1H-pyrazol-1-yl)methyl)-5-((2-(pyridin-4-yl)benzyl)thio)-1,3,4-oxadiazole]	0.66	0.7	0.7	8.3	10.2	10.2										
CC(C)c1ccccc1/C=C/c1nnc(Cc2ccc(Br)cc2F)o1 [Compound 169, 2-(4-bromo-2-fluorobenzyl)-5-(2-isopropylstyryl)-1,3,4-oxadiazole]							3.08	71.9	2.22	2.13	20.3	> 50	37.2			
Cc1ccc(-c2ccccc2CSc2nnc(Cn3nc(C)c(Br)c3C)o2)cc1 [Compound 32, 2-((4-bromo-3,5-dimethyl-1H-pyrazol-1-yl)methyl)-5-(((4′-methyl-[1,1′-biphenyl]-2-yl)methyl)thio)-1,3,4-oxadiazole]	1.38							102.3						0.5	0.6	7.32
Cc1nn(Cc2nnc(SCc3cccc4ccccc34)o2)c(C)c1Br [Compound 8, 2-((4-bromo-3,5-dimethyl-1H-pyrazol-1-yl)methyl)-5-((naphthalen-1-ylmethyl)thio)-1,3,4-oxadiazole]	7.48							112.1						10.5	6.94	> 50
CC(C)c1ccccc1/C=C/c1nnc(Cc2cccc3ccccc23)o1 [Compound 132, 2-(2-isopropylstyryl)-5-(naphthalen-1-ylmethyl)-1,3,4-oxadiazole]							1.58	148.1	1.14	1.52	10.8	12.2	13.6			
